Laboratory results reported in patent US7439035B1, “Method of identifying or characterizing a compound that modulates ribonuclease H activity” (McGill University, priority 2001, dated 2008).

Assays:
[1] = molecular target: T1, HIV-1 RT associated RNase H (Human immunodeficiency virus type 1 group M subtype B, UniProt P04585); assay: Gel electrophoretic RNase H assay, inhibition of HIV-1 RT associated RNase H; type: biochemical; conditions: 1.5 nM p51/p66 RT, 100 nM [32P]-RNA/DNA substrate, 37° C., densitometry of undegraded RNA; read-out: IC50 for BBNH obtained with the gel assay
T1 construct: final concentration of 2.5 nM of the p51/p66 RT heterodimer in the assay; made in house
Source text: The gel electrophoretic assay used 5′-[^32P]-RNA of the sequence 5′-GAU CUG AGC CUG GGA GCU-3′ (SEQ ID NO: 7; identical to that of the FRET RNA, but lacking the 3′-fluorescein), prepared by the transfer of ^32P from [γ-^32P]-ATP in a reaction catalyzed by bacteriophage T4 polynucleotide kinase. This 5′[^32P]-RNA oligonucleotide was annealed to complementary unlabeled DNA of the sequence 5′-AGC TCC CAG GCT CAG ATC-3′ (SEQ ID NO: 8) to form the [^32P]-RNA/DNA hybrid duplex substrate. Aliquots of 100 μl of 50 mM Tris/HCl (pH 8.0, 37° C.), containing 60 mM KCl and 2.5 mM MgCl2, 1.5 nM p51/p66 RT and variable amounts of BBNH inhibitor were added to individual microtubes and incubated at 37° C. for 15 minutes. […] The extent of RNase H activity can be determined quantitatively by densitometric analysis of the time-dependent disappearance of the full-length RNA substrate and/or the appearance of the smaller degradation products. In this experiment, the bands corresponding to the undegraded 18 nucleotide 5′-[^32P]-RNA were quantified by densitometry, using the software UN-SCAN-IT (Silk Scientific, Orem, Utah). The IC50 values for BBNH inhibition of HIV-1 RT associated RNase H activity were calculated from plots of the residual undegraded 5′[^32P]-RNA vs. drug concentration.

[2] = molecular target: T1, HIV-1 RT associated RNase H; assay: FRET RNase H assay, inhibition of HIV-1 RT associated RNase H; type: biochemical; conditions: 1.5 nM p51/p66 RT, 100 nM 3'-fluorescein-RNA/5'-DABCYL-DNA substrate, 37° C., 15 min preincubation; read-out: IC50 for BBNH obtained with the FRET assay
Description: Microplate assay protocol for the measurement of RNase H activity using the RNA/DNA hybrid duplex substrate. Reaction assay mixtures contained 5 μl of a stock solution of 2.5 μM RNA/DNA hybrid duplex substrate added to 85 μl of assay buffer (50 mM Tris, pH 8.0, 37° C., containing 60 mM KCl and 2.5 mM MgCl2), prepared in the wells of a 96-well fluorescence microtiter plate, and warmed to 37° C. using the temperature control of the SpectraMax Gemini XS microplate spectrofluorometer (Molecular Devices). Reactions were started by the addition of 5 μl of a solution of recombinant HIV-1 reverse transcriptase (usually providing a final concentration of 2.5 nM of the p51/p66 RT heterodimer in the assay, and mixing using the automatic mixing function of the microplate spectrofluorometer. The reverse transcriptase for use in this assay was prepared as described by Fletcher R S et al, Single step purification of HIV-1 recombinant wild type and mutant reverse transcriptase, Protein Expression and Purification 7:27-32, 1996. The increase in fluorescence signal resulting from the loss of FRET due to the enzymatic hydrolysis of the RNA strand was measured over suitable time intervals (ranging from 3 minutes to 60 minutes), at an excitation wavelength of 490 nm and an emission wavelength of 528 nm, using a cut-off filter of 515 nm. […]

CC(C)(C)c1ccc(C(=O)NN=Cc2c(O)ccc3ccccc23)cc1 [BBNH, N-(4-tert-butylbenzoyl)-2-hydroxy-1-naphthaldehyde hydrazone]
IC50 [1]: 3000 ± 1200 nM
IC50 [2]: 2600 ± 500 nM
